# Source: patent publication US20210138025A1, “CATIONIC PEPTIDES WITH IMMUNOMODULATORY AND/OR ANTI-BIOFILM ACTIVITIES” (priority 2018, published 2021)
# Like-named read-outs stand apart in the source and are kept apart here. No end group written: not given here.
# How the values were obtained:
# MCP-1 = MCP-1 chemokine induction in human PBMCs, ELISA (Tables 6, 7; FIGS. 6-9, 13); assay type: cell-based; conditions: SPOT synthesized control peptides, determined as in Table 6; Table 7
# Experimental: Venous blood (20 ml) from healthy volunteers was collected in Vacutainer® collection tubes containing sodium heparin as an anticoagulant (Becton Dickinson, Mississauga, ON) in accordance with UBC ethical approval and guidelines. Blood was diluted 1:1 with complete RPMI 1640 medium and separated by centrifugation over a Ficoll-Paque® Plus (Amersham Biosciences, Piscataway, N.J., USA) density gradient. White blood cells were isolated from the buffy coat, washed twice in PBS and then resuspended in RPMI 1640 complete medium (containing 10% fetal bovine serum), and the number of peripheral blood mononuclear cells (PBMC) was determined by Trypan blue exclusion. PBMCs (5×10^5) were seeded into 12-well tissue culture dishes (Falcon; Becton Dickinson) at 0.75-1×10^6 cells/ml at 37° C. in 5% CO2. The above conditions were chosen to mimic conditions for circulating blood monocytes entering tissues at the site of infection via extravasation.
# Following incubation of the cells under various treatment regimens, the tissue culture supernatants were centrifuged at 1000×g for 5 min, then at 10,000×g for 2 min to obtain cell-free samples. Supernatants were aliquoted and then stored at −20° C. prior to assay for various chemokines by capture ELISA (eBioscience and BioSource International Inc., CA, USA respectively)
# S. aureus (MRSA SAP0017) = assay type: cell-based, Staphylococcus aureus; conditions: SPOT synthesized control peptides, determined as in Table 5; Table 7
# How it was run: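 Static biofilm assay: 1/100 dilutions of overnight cultures grown with peptide at varying concentrations, added at time zero, in BM2 biofilm medium or tryptic soy broth plus 1% glucose in polypropylene plates. After 22-46 h, adherent biofilm stained with crystal violet and absorbance read at 595 nm.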
# IL-1β = assay: Suppression of LPS-induced IL-1β production in human PBMCs, ELISA (Tables 6, 7; FIGS. 6-9, 13); conditions: SPOT synthesized control peptides, determined as in Table 6; Table 7
# E. coli (Ec) [1] = assay type: cell-based
# S. aureus (Sau) [2] = assay type: cell-based
# Experimental: (§1) The same strains as in Table 18 were assessed for Minimal Biofilm Inhibitory Concentrations (MBIC) (Table 19). Italics=excellent activity (less than or equal to 4 μg/ml). ND=Not determined. Peptides 3013, 3015 and 3016 inhibited biofilm growth in the largest number of bacterial strains (5, 5 and 6 out of 13 strains, respectively).
# (§2) In addition, several peptides expressed preferential activity vs. biofilms (MBIC) cf. planktonic cells (MIC) (Table 20).
# E. coli (Ec) [3] = assay type: cell-based; remark: listed apart in the source
# Experimental: as §1, §2
# [4] = tested on: planktonic methicillin resistant S. aureus; assay: microbe, parasite or virus in culture; assay type: cell-based, Staphylococcus aureus
# S. aureus (Sau) [5] = assay type: cell-based; remark: listed apart in the source
# PBMCs = assay: Cytotoxicity towards PBMCs, lactate dehydrogenase (LDH) release assay (Tables 6, 7); conditions: SPOT synthesized peptide ~25 μM, PBMCs from 3 human donors; Table 6
# [6] = planktonic methicillin resistant
# [7] = planktonic methicillin resistant S. aureus, broth microdilution in Mueller Hinton Broth (MHB), mean of three biological replicates
# [8] = planktonic methicillin resistant S. aureus, broth microdilution in Tryptic Soy Broth (TSB) supplemented with 1% glucose, mean of three biological replicates
Substance,MCPI production in PBMC (MCP-1),% Biofilm Inhibition (S. aureus (MRSA SAP0017)),Fold Change in IL1-β relative to untreated LPS-stimulated cells (IL-1β),MIC E. coli (E. coli (Ec) [1]; Ec),MBIC S. aureus (S. aureus (Sau) [2]; Sau),MBIC E. coli (E. coli (Ec) [3]; Ec),"MIC (μM) MHB [4, 6]","MIC (μM) TSB with 1% Glucose [4, 6]",MIC S. aureus (S. aureus (Sau) [5]; Sau),% Toxicity (LDH Release) (PBMCs),further results
C43 (AVIVRAAKGGAR) [Peptide C43],100 pg/mL,103%,0.99,,,,,,,,
C44 (LLKLKQKGIVIA) [Peptide C44],365 pg/mL,102%,0.94,,,,,,,,
C45 (QWLVKWVIIKVV) [Peptide C45],499 pg/mL,102%,1,,,,,,,,
C46 (IQIWIIRVIWRW) [Peptide C46],697 pg/mL,102%,0.91,,,,,,,,
C47 (KVIQWIIVRRVL) [Peptide C47],1193 pg/mL,102%,0.76,,,,,,,,
C48 (KVIKIVLVRVVK) [Peptide C48],1752 pg/mL,99%,1.07,,,,,,,,
C49 (WLKRIVKVVVLK) [Peptide C49],1557 pg/mL,103%,0.8,,,,,,,,
C50 (IKIVRRAKIIIW) [Peptide C50],222 pg/mL,94%,0.91,,,,,,,,
C51 (VKWKGKVIVVQL) [Peptide C51],862 pg/mL,79%,0.81,,,,,,,,
C52 (KIVQKKLRLVVI) [Peptide C52],291 pg/mL,99%,0.76,,,,,,,,
C53 (GKLKIKVKLGIA) [Peptide C53],113 pg/mL,98%,0.94,,,,,,,,
C54 (QVVVKKKAIQVV) [Peptide C54],651 pg/mL,101%,0.95,,,,,,,,
C55 (VAKVKKARWRLR) [Peptide C55],208 pg/mL,102%,0.92,,,,,,,,
C56 (IIKWIVVRQIRK) [Peptide C56],57 pg/mL,102%,0.85,,,,,,,,
C57 (KGKIRKIVLIRR) [Peptide C57],157 pg/mL,102%,0.9,,,,,,,,
"IAWQLLWGWRVR-NH2 [Peptide 3022, IAWQLLWGWRVR]",,,,8 mg/L,4 µg/mL,4 µg/mL,4 µM,8 µM,8 mg/L,−4.8%,
"IKIIWKALGQVI-NH2 [Peptide 3024, IKIIWKALGQVI]",,,,4 mg/L,8 µg/mL,2 µg/mL,,,16 mg/L,−1.7%,"MIC (μM) MHB [4, 7]: 16 µM; MIC (μM) TSB with 1% Glucose [4, 8]: 32 µM"
"ILVRWIRWRIQW-NH2 [Peptide 3002, ILVRWIRWRIQW]",,,,8 mg/L,4 µg/mL,4 µg/mL,2 µM,4 µM,8 mg/L,−3.7%,
"IQRWWKVWLKVI-NH2 [Peptide 3004, IQRWWKVWLKVI]",,,,4 mg/L,1 µg/mL,2 µg/mL,4 µM,16 µM,8 mg/L,5.1%,
"IWLRLKVVLKRK-NH2 [Peptide 3006, IWLRLKVVLKRK]",,,,,,,,,,2.4%,"MIC E. coli (E. coli (Ec) [1]; planktonic cells, Table 20): 2 mg/L; MBIC S. aureus (S. aureus (Sau) [2]; biofilms, Table 20): 1 µg/mL; MBIC E. coli (E. coli (Ec) [3]; biofilms, Table 20): 1 µg/mL; MIC (μM) MHB [4, 7]: 4 µM; MIC (μM) TSB with 1% Glucose [4, 8]: 32 µM; MIC S. aureus (S. aureus (Sau) [5]; planktonic cells, Table 20): 8 mg/L"
"KIQRRAWKQWRK-NH2 [Peptide 3014, KIQRRAWKQWRK]",,,,64 mg/L,64 µg/mL,64 µg/mL,>64 µM,>64 µM,>64 mg/L,−3.7%,
"KKWQLLIKWKLR-NH2 [Peptide 3008, KKWQLLIKWKLR]",,,,8 mg/L,2 µg/mL,4 µg/mL,2 µM,4 µM,8 mg/L,18.8%,
"LIVIQLLKKWWK-NH2 [Peptide 3020, LIVIQLLKKWWK]",,,,2 mg/L,<1 µg/mL,1 µg/mL,8 µM,>64 µM,16 mg/L,10.2%,
"RRIIKILLWKLR-NH2 [Peptide 3021, RRIIKILLWKLR]",,,,<1 mg/L,1 µg/mL,2 µg/mL,4 µM,32 µM,8 mg/L,13.1%,
"RRQWRGWVRIWL-NH2 [Peptide 3005, RRQWRGWVRIWL]",,,,4 mg/L,1 µg/mL,2 µg/mL,4 µM,64 µM,8 mg/L,−4.2%,
"RVKAIKWRKIVV-NH2 [Peptide 3012, RVKAIKWRKIVV]",,,,64 mg/L,8 µg/mL,32 µg/mL,>64 µM,>64 µM,>64 mg/L,2.8%,
